Data on five molecules can be found in US20120101057A1, “COMBINED THERAPY OF COLORECTAL CARCINOMA” (INSTYTUT FARMACEUTYCZNY, priority 2009, published 2012).

Data set [1] deals with murine colorectal cancer C38. The experiment in a line: survival time and tumour growth in mice with colorectal cancer C38 treated with 5-FU (1b). It counts as in vivo. The note with it: for ILS %: 5-FU 75 mg/kg i.p. day 1, PRI-2191 2, PRI-2205 10 μg/kg/day 3 times per week; for TGI (d20) %: day 20; for C38 tumour mass in comparison with control: single agent. On the procedure: Mice with colorectal cancer C38 were treated with 5-FU given in a single administration, intraperitoneally on day 1 at a dose of 75 mg/kg.

Data set [2] relates to murine colorectal cancer C38. The experiment in a line: tumour growth in mice with colorectal cancer C38 treated with 5-fluorouracil (1a). The data set is classed as in vivo, Mice of C57BL/6 strain. The note with it: for TGI / Tumours MEAN ± SD: C38, 28 day of experiment; for Tumours MEAN ± SD: 5-FU 150 mg/kg i.p., PRI-2191 2 ug/kg s.c., PRI-2205 10 μg/kg s.c.; for volume of tumours C38 in comparison with control: single agent.

For another data set, the system named is colorectal cancer HT-29. The experiment in a line: tumour growth in mice with colorectal cancer HT-29 treated with 5-fluorouracil. The data set is classed as in vivo. The note with it: for TGI / Tumours MEAN ± SD: HT-29, 49 day of experiment; for HT-29 tumour mass in comparison with control: single agent.
Data set [3] deals with murine colorectal carcinoma C38. The experiment in a line: tumour growth in mice with murine colorectal carcinoma C38 treated with capecitabine. The data set is classed as in vivo, Mice of C57BL/6 strain. The note with it: for Tumours MEAN ± SD / TGI: C38; for tumour C38 mass in comparison with control: single agent.
The test system of data set [4] is murine colorectal cancer MC38/EGFP. The experiment in a line: burden of metastases in regional lymph nodes, MC38/EGFP fluorescence (1c). It counts as in vivo, mice. An excerpt: Cancer cells of murine colorectal cancer MC38/EGFP (cells expressing a protein of green fluorescence) were implanted subcutaneously in an amount of 1×10^6 cells/mouse. […] Compounds were given subcutaneously, 3 times a week. […] Then on day 59 of experiment, lymph nodes from mice of remaining were taken for analysis. Using NightOWL II LB 983 apparatus, photographs of isolated lymph nodes were taken in order to visualize cancer cells in sites of metastases.
Intensity of the measured fluorescence is related to a burden of metastases (the number of cells with fluorescence).

The subject of another data set is CaCo-2. The experiment in a line: antiproliferative activity of 5-fluorouracil combined with vitamin D analogues in vitro, 120 h. It counts as cell-based, human. Also noted: key to Type of reaction between vitamin D analogues and 5-fluorouracil: +: sub-additive effect; ++: additive effect; +++: synergistic effect; −: antagonism. The note with it: for Type of reaction between vitamin D analogues and 5-fluorouracil: CaCo-2, analogue 100 nM + 5-fluorouracil 1 μg/ml, 120-hours exposure. As to the method: (§1) After 24 h culture, the cells of large intestine carcinoma were treated simultaneously with calcitriol or vitamin D analogues and 5-fluorouracil for 120 hours. The final concentration of vitamin D analogues was 100 nM, and of 5-fluorouracil—-1 μg/ml or 0.1 μg/ml. Statistical analysis of the obtained results of inhibition of proliferation was carried out by analysis of percent of inhibition of proliferation in individual combinations of compounds.
(§2) Hypothetical value was calculated according to a formula: […]
(§3) wherein: % H—hypothetical inhibition of proliferation by combination of compounds [Vo]; % cyt—inhibition of proliferation by 5-Fu alone [%]; % vit—inhibition of proliferation by calcitriol or cholecalciferol analogue alone [%];
(§4) Additive effect occurs when the experimental and hypothetical value are similar, sub-additive effect occurs when experimental value is lower than hypothetical value but above value for a cytostatic alone, and antagonistic action—when a value determined for a cytostatic used alone is above experimental value for combination of both compounds. [Peters G. J. i wsp.: Pharmacol Ther 2000, 87, 227-253]

Another data set concerns HT-29. Described as above. It counts as cell-based, human. The arrangement: key: +: sub-additive effect; ++: additive effect; +++: synergistic effect; −: antagonism. The note with it: analogue 100 nM + 5-fluorouracil 0.1 μg/ml, 120-hours exposure. On the procedure: as §1, §2, §3, §4
A further data set relates to LoVo. The data set is described as above. The arrangement: key: +: sub-additive effect; ++: additive effect; +++: synergistic effect; −: antagonism. Particulars: analogue 100 nM + 5-fluorouracil 1 μg/ml, 120-hours exposure. It counts as cell-based, human. As to the method:
as §1, §2, §3, §4

The next data set relates to MC38/0. Described as above. The data set is classed as cell-based, mouse. The arrangement: key: +: sub-additive effect; ++: additive effect; +++: synergistic effect; −: antagonism. The note with it: 120-hours exposure. On the procedure:
After 24 h culture, the cells of large intestine carcinoma were treated simultaneously with calcitriol or vitamin D analogues and 5-fluorouracil for 120 hours. […] Statistical analysis of the obtained results of inhibition of proliferation was carried out by analysis of percent of inhibition of proliferation in individual combinations of compounds.
as §2, §3, §4

The conditions of data set [5]: rats; cited from earlier work.
The mark [6] stands for this setting: 18 day of experiment, KCY 250 mg/kg/day oral, PRI-2191 1, PRI-2205 10 μg/kg/day s.c.
The mark [7] stands for this setting: analogue combined with capecitabine.
Setting [8] is: MC38/0, analogue 100 nM + 5-fluorouracil 0.1 μg/ml.
Setting [9] is: analogue 100 nM + 5-fluorouracil 0.01 μg/ml, cell line of this column unclear (MC38/0 or CaCo-2).

A word on the TGI: it is the reduction of tumour growth relative to the control group. With `O=c1[nH]cc(F)c(=O)[nH]1` [5-FU, 5-fluorouracil], in data set [1] (C38), the ILS % came out at 21% and the “TGI (d20) %” value stood at 64%. Moreover, the “C38 tumour mass in comparison with control” value in data set [1] is given as “decreases in a statistically significant manner C38 tumour mass in comparison with control”. In addition, in data set [2], the TGI is given as 84%, the “Tumours MEAN ± SD” value stood at 0.19 ± 0.19 g and the “volume of tumours C38 in comparison with control” value is listed as “decreases in statistically significant manner volume of tumours C38 in comparison with control”. Also, in the data set on colorectal cancer HT-29, the TGI is listed as 47%, the “Tumours MEAN ± SD” value is on record as 1.23 ± 0.30 g and the “HT-29 tumour mass in comparison with control” value is recorded as “decreases in a statistically significant manner HT-29 tumour in comparison with control”.
Consider `C=C1/C(=C/C=C2\CCC[C@]3(C)[C@@H]([C@H](C)/C=C/[C@@H](O)C4CC4)CC[C@@H]23)C[C@@H](O)C[C@@H]1O` [PRI-2205, (1S,3R,5E,7E,22E,24S)-24-cyclopropyl-9,10-secochol-5,7,10(19),22-tetraeno-1,3,24-triol], for which, in [1] (C38), the ILS % was found to be 2% and the “TGI (d20) %” value came out at 0%. Besides, the “influence on survival time of mice treated with 5-FU” value in [1] (C38, analogue added to 5-FU, p<0.05) is “prolongs survival of mice treated with 5-FU”. Further, in data set [1] (C38, combination with 5-FU, survival time), the “ILS Effect” value was “synergistic”. Further, in [1] (analogue combined with 5-FU), the “C38 tumour mass, combination with 5-FU in comparison with 5-FU” value is “in a statistically significant manner decreases tumour mass also in comparison with 5-FU”. For the same molecule, in [1], the “C38 tumour mass in comparison with control” value was “does not influence tumour mass”. For the same molecule, in data set [2], the TGI is 29%, the “Tumours MEAN ± SD” value was 1.06 ± 0.84 g and the “volume of tumours C38 in comparison with control” value is recorded as “inhibits C38 tumours growth from 18 to 28 day of measurement”. For the same molecule, in data set [2] (analogue combined with 5-FU), the “volume of tumours C38, combination with 5-FU in comparison with 5-FU” value was “decreases in statistically significant manner volume of tumours also in comparison with 5-FU”. In addition, in data set [3] (setting [6]), the “Tumours MEAN ± SD” value is listed as 0.81 ± 0.60 g. In data set [3] (setting [7]), the “tumour mass, combination with capecitabine in comparison with capecitabine alone” value is listed as “influences significantly tumour mass in comparison with capecitabine alone” and the “type of interaction in inhibition of tumour growth with capecitabine” value is “synergism”. In addition, the “tumour C38 mass in comparison with control” value in data set [3] is “does not influence tumour mass”. Further, the “metastases in regional lymph nodes (intensity of fluorescence), combined treatment with 5-FU” value in [4] (5-FU 75 mg/kg i.p. with PRI-2191 1 μg/kg or PRI-2205 10 μg/kg s.c., day 59) is on record as “did not influence the metastatic process”. Moreover, the “metastases in regional lymph nodes (fluorescence) versus control mice” value in data set [4] (analogue only, day 50) is reported as “did not differ significantly”. The “Type of reaction between vitamin D analogues and 5-fluorouracil” value with CaCo-2 was “+++”. For the same molecule, the “Type of reaction between vitamin D analogues and 5-fluorouracil” value in the data set with HT-29 is on record as “+++”. Further, the “Type of reaction between vitamin D analogues and 5-fluorouracil” value with LoVo is recorded as “+++”. The “Type of reaction between vitamin D analogues and 5-fluorouracil” value in the data set with MC38/0 (setting [8]) is listed as “+++”. Also, the “Type of reaction between vitamin D analogues and 5-fluorouracil” value with MC38/0 (setting [9]) was “+++”. Further, in the data set with colorectal cancer HT-29, the TGI came out at 31%, the “Tumours MEAN ± SD” value turned out to be 1.88 ± 0.78 g and the “HT-29 tumour mass in comparison with control” value is on record as “did not influence tumour mass”. In addition, in the data set with colorectal cancer HT-29 (analogue combined with 5-FU), the “HT-29 tumour mass, combination with 5-FU in comparison with 5-FU alone” value is “influences significantly also tumour mass in comparison with 5-FU alone” and the “type of interaction in inhibition of HT-29 tumour growth” value is listed as “synergism”.
Turning to `CCCCCOC(=O)Nc1nc(=O)n([C@@H]2O[C@H](C)[C@@H](O)[C@H]2O)cc1F` [KCY, capecitabine], the TGI in data set [3] (18 day of experiment) was 47%; in [3] (29 day of experiment), 35%. In addition, the “Tumours MEAN ± SD” value in data set [3] (setting [6]) stood at 0.41 ± 0.33 g; in data set [3] (29 day of experiment), 1.65 ± 1.39 g. In data set [3], the “tumour C38 mass in comparison with control” value is on record as “decreases tumour C38 mass in comparison with control”.
In the case of `C=C1/C(=C\C=C2/CCC[C@]3(C)[C@@H]([C@H](C)CCCC(C)(C)O)CC[C@@H]23)C[C@@H](O)C[C@@H]1O` [CALCITRIOL, 1,25-dihydroxycholekalciferol], the “Type of reaction between vitamin D analogues and 5-fluorouracil” value in the data set on CaCo-2 was “−”; in the data set on HT-29, “+++”; in the data set on LoVo it was “+++”; in the data set on MC38/0 (setting [8]) it was “+++”; in the data set on MC38/0 (setting [9]) it was “+++”. For the same molecule, in the data set with CaCo-2 (Caco-2 cell line, 120-hour exposure), the “interaction with 5-fluorouracil” value is “antagonism”.
With `C=C1/C(=C\C=C2/CCC[C@]3(C)[C@@H]([C@H](C)/C=C/[C@@H](O)C4CC4)CC[C@@H]23)C[C@@H](O)C[C@@H]1O` [PRI-2201, (1S,3R,5Z,7E,22E,24S)-24-cyclopropyl-9,10-secochola-5,7,10(19),22-tetraeno-1,3,24-triol], the “Type of reaction between vitamin D analogues and 5-fluorouracil” value with CaCo-2, in the data set on HT-29, in the data set with LoVo, in the data set on MC38/0 (setting [8]) and with MC38/0 (setting [9]) was “+++” each time. In addition, the “lesser influence on calcium metabolism than calcitriol” value in data set [5] was 100-200 fold.
